Experimental data published in patent US20120052025A1 (Colgate-Palmolive Company, priority 2009, published 2012).
≈ marks a conversion by molar mass, not a printed value.

How the values were obtained:
[1] = type: physicochemical
Excerpt: Although some borinic esters are effective as antibacterial agents, incorporating borinic esters into oral care compositions presents difficulties, as borinic esters have proven to be unstable when added to aqueous compositions. For example, borinic esters may hydrolyze and decompose, e.g., in oral care compositions. Additionally, borinic esters may be insoluble in aqueous compositions. […] There remains a need to develop compositions and methods to incorporate borinic acid derivatives stably in oral care compositions.
The poor solubility of Compound A presents some formulation challenges. Its solubility in water is less than 100 ppm, and its solubility in flavor oils (often used to solubilize actives) is less than 0.5%. We have discovered that co-polymers of polyethylene glycol and polypropylene glycol are able to solubilize Compound 1. Fluraflo L4370 (BASF) is able to solubilize 1% Compound 1 (% w/w). It is necessary to stir the solution over low heat to fully solubilize the active. The resulting solution is cloudy, reflecting the nature of the Fluraflo L4370 itself. The solution of 1% Compound 1 in Fluraflo L4370 is diluted 1:1 with 1.5% SLS in water to produce a clear solution, composed of 0.5% AN0128, 0.75% SLS, 50% Fluraflo L4370 in water Similar results are achieved using Fluracare L1220.
We further discovered that low molecular weight polyethylene glycol 300 (PEG 300) (Dow Chemical Company) solubilizes 10% Compound 1 (% w/w). It is necessary to stir the solution over low heat to fully solubilize the active. The resulting solution is clear with a slight yellow tint due to the color of Compound 1. […] Therefore, we conclude that solvents containing oligomers and/or polymers of ethylene glycol are capable of solubilizing Compound 1 and are suitable for formulation.
(§1) The properties of Compound 1 in conjunction with other excipients are further evaluated by diluting a solution of Compound 1 in PEG 300 into other solvents such as propylene glycol and glycerin at varying ratios. A solution containing 1% Compound 1 in 19% PEG 300 and 80% propylene glycol is clear. This solution is then diluted 1:1 with 1% SLS in water to produce a solution composed of 0.5% Compound 1, 0.5% SLS, 9.5% PEG 300 and 40% propylene glycol in water which is then tested in the biofilm disruption assay. The percent reduction achieved versus the negative control is 80%. […] Similar results are achieved with PEG and glycerin.

[2] = Decomposition in buffered vs unbuffered pH 7.2 formulation; type: physicochemical; details: pH 7.2, phosphate buffer, 14 days
Method: Two pH 7.2 formulations of Compound 1 are prepared, one with phosphate buffer, one without, and the decomposition of Compound 1 is measured over 14 days. While measurable decomposition is seen in both formulations, the slope of the rate of decomposition Compound 1 in the buffered formulation is decreased by 3.3 fold compared to that of the unbuffered formulation.

V. parvula = assay: Minimum inhibitory concentration; type: cell-based; details: Veillonella parvula, Gram Negative, ethanol vehicle
Excerpt: (§2) The minimum inhibitory concentration for COMPOUND 1 against common oral bacteria is found to be as follows. Ethanol is used as vehicle.

L. casei = assay: Minimum inhibitory concentration; type: cell-based; details: Lacticaseibacillus casei, Gram Positive, ethanol vehicle
Excerpt: as §2

A. actinomycetemcomitans = assay: Minimum inhibitory concentration; type: cell-based; details: Aggregatibacter actinomycetemcomitans, Gram Negative, ethanol vehicle
Excerpt: as §2

S. sobrinus = assay: Minimum inhibitory concentration; type: cell-based; details: Streptococcus sobrinus, Gram Positive, ethanol vehicle
Excerpt: as §2

S. oralis = assay: Minimum inhibitory concentration; type: cell-based; details: Streptococcus oralis, Gram Positive, ethanol vehicle
Excerpt: as §2

P. intermedia = assay: Minimum inhibitory concentration; type: cell-based; details: Prevotella intermedia, Gram Negative, ethanol vehicle
Excerpt: as §2

A. naeslundii = assay: Minimum inhibitory concentration; type: cell-based; details: Actinomyces naeslundii, Gram Positive, ethanol vehicle
Excerpt: as §2

S. sanguinis = assay: Minimum inhibitory concentration; type: cell-based; details: Streptococcus sanguinis, Gram Positive, ethanol vehicle
Excerpt: as §2

S. mutans = assay: Minimum inhibitory concentration; type: cell-based; details: Streptococcus mutans, Gram Positive, ethanol vehicle
Excerpt: as §2

F. nucleatum = assay: Minimum inhibitory concentration; type: cell-based; details: Fusobacterium nucleatum, Gram Negative, ethanol vehicle
Excerpt: as §2

A. viscosus = assay: Minimum inhibitory concentration; type: cell-based; details: Actinomyces viscosus, Gram Positive, ethanol vehicle
Excerpt: as §2

S. gordonii = assay: Minimum inhibitory concentration; type: cell-based; details: Streptococcus gordonii, Gram Positive, ethanol vehicle
Excerpt: as §2

P. gingivalis = assay: Minimum inhibitory concentration; type: cell-based; details: Porphyromonas gingivalis, Gram Negative, ethanol vehicle
Excerpt: as §2

biofilm = assay: Biofilm disruption assay; type: cell-based
Method: The solution of 0.5% AN0128.0.75% SLS. 50% Fluraflo L4370 in water is then tested in a biofilm disruption assay.
A solution of 2% Compound 1 in PEG 300 is diluted 1:1 with 2% SLS in water to produce a solution composed of 1% Compound 1, 1% SLS, 50% PEG 300 in water which is then tested in a biofilm disruption assay.
as §1

[3] = Stability of formulations with and without antioxidants; type: physicochemical
Excerpt: The stability of three formulations of Compound 1 are compared, the formulations being identical except that one is without any antioxidants, one contains α-tocopherol, and the third contains sodium ascorbylphosphate.

Structure (SMILES): Cc1ccc([B-]2(c3ccc(C)c(Cl)c3)OC(=O)c3ncccc3[OH+]2)cc1Cl [Compound 1]
- amount of Compound 1 solubilized by Fluraflo L4370 [1]: 1 % w/w
- amount of Compound 1 solubilized by PEG 300 [1]: 10 % w/w
- solubility in oils [1]: less than 0.5%
- solubility in water [1]: 100 ppm
- solubilization by PEG 600 [1]: can solubilize
- appearance of solution ([1]; 1% Compound 1 in 19% PEG 300 and 80% propylene glycol): clear
- decrease of the slope of the rate of decomposition, buffered vs unbuffered formulation [2]: 3.3 fold
- MIC (V. parvula): 7.8 µg/mL (≈ 19.5 µM)
- MIC (L. casei): 2 to 3.9 µg/mL (≈ 5 to 9.75 µM)
- MIC (A. actinomycetemcomitans): > 15.6 µg/mL
- MIC (S. sobrinus): 0.12 to 0.5 µg/mL (≈ 0.3 to 1.25 µM)
- MIC (S. oralis): 0.12 to 0.25 µg/mL (≈ 0.3 to 0.625 µM)
- MIC (P. intermedia): 3.9 to 7.8 µg/mL (≈ 9.75 to 19.5 µM)
- MIC (A. naeslundii): 1 to 2 µg/mL (≈ 2.5 to 5 µM)
- MIC (S. sanguinis): 0.25 to 0.5 µg/mL (≈ 0.625 to 1.25 µM)
- MIC (S. mutans): 0.25 to 0.5 µg/mL (≈ 0.625 to 1.25 µM)
- MIC (F. nucleatum): 1 to 2 µg/mL (≈ 2.5 to 5 µM)
- MIC (A. viscosus): 1 µg/mL (≈ 2.5 µM)
- MIC (S. gordonii): 0.12 to 0.25 µg/mL (≈ 0.3 to 0.625 µM)
- MIC (P. gingivalis): ≤ 0.12 µg/mL
- percent reduction versus the negative control (biofilm; solution of 0.5% AN0128, 0.75% SLS, 50% Fluraflo L4370 in water): 65%
- percent reduction versus the negative control (biofilm; solution of 0.5% Compound 1, 0.5% SLS, 9.5% PEG 300 and 40% propylene glycol in water): 80%
- percent reduction versus the negative control (biofilm; solution of 1% Compound 1, 1% SLS, 50% PEG 300 in water): 76%
- decomposition in formulation ([3]; formulation containing sodium ascorbylphosphate vs without antioxidants): significantly reduced
- decomposition in formulation ([3]; formulation containing α-tocopherol vs without antioxidants): even less
